Read-outs that look alike come from different tables or passages of the source.
Key:
[1] = test system: NF-κB; assay: NF-kB assay in THP-1-Blue NF-κB cells (SEAP reporter); assay type: cell-based
Protocol: THP-1-Blue NF-κB cells (InvivoGen) carrying a stable integrated NF-κB-inducible secreted embryonic alkaline phosphatase (SEAP) reporter construct were plated at a concentration of 1×10^5 cells per well. The cells were stimulated with Pam3CSK4 (1 ng/mL) or hIL1B (Ing/mL). After 10-20 minutes, the cells were then treated with vehicle (DMSO) or serial dilutions of the test compounds (10 doses tested for each test compound, with a 1:10 dilution series starting at 1 μM or 3 μM) with a final volume of 200 μL for 24 hours at 37° C. After 24 hours, the cells were centrifuged and 20 IL supernatant was incubated with 180 μL QUANTI-Blue reagent at 37° C. for 30-60 minutes. The levels of NF-κB-induced was measured in a microplate reader at 620 nm.

[2] = test system: MOLM14 D835Y cells; assay: MOLM14 D835Y cell viability assay (Cell Titer Glo); assay type: cell-based
[3] = biological target: T1, FLT3 (Homo sapiens, UniProt P36888); assay: RBC HotSpot Kinase Assay, FLT3; assay type: biochemical; design: purchased RBC (Reaction Biology) HotSpot assay; details: HotSpot functional assay, isolated kinase enzyme, 33P-ATP
T1 sequence (P36888 27-993): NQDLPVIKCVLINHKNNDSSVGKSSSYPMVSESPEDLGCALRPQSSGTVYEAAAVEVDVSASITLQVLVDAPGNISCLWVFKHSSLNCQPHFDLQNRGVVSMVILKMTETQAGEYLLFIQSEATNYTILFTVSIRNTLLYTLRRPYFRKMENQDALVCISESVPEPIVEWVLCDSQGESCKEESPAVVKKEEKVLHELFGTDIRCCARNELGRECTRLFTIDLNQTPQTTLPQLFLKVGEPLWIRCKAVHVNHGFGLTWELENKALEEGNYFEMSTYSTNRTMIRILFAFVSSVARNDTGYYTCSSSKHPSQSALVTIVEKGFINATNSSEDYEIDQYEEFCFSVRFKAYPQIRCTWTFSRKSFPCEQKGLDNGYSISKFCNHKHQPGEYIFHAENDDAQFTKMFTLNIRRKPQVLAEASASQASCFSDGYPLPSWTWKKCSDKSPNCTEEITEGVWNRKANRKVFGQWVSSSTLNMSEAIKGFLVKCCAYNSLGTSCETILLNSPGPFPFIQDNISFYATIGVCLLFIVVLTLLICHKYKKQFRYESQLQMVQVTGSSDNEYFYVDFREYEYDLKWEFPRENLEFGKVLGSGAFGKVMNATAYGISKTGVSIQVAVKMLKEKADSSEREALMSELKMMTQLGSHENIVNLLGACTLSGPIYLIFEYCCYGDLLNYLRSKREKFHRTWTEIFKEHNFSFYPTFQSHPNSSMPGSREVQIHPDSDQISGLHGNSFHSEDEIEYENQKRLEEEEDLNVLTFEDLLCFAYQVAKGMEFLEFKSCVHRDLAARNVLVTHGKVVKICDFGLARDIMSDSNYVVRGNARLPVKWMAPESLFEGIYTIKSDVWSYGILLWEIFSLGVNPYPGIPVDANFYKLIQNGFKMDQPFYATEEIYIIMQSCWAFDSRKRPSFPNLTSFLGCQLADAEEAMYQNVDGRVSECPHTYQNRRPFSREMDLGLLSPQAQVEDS
Procedure, shortened: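 Isolated kinases, possibly truncated or lacking regulatory receptor regions, were preincubated with compound for 20 min at room temp in 20 mM Hepes pH 7.5, 10 mM MgCl2, 1 mM EGTA, 2 mM DTT, 1% DMSO. Reactions were started with ^33P-ATP and run 2 h at room temperature; activity was read by P81 filter binding.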

[4] = THP-1-Blue NF-κB cells stimulated with Pam3CSK4, 24 hours, read-out: NF-κB Pam3SCK4 IC50
[5] = THP-1-Blue NF-κB cells stimulated with hIL1B, 24 hours, read-out: NF-κB IL1B IC50

SMILES | IC50 [1, 4] | IC50 [1, 5] | IC50 ([2]; 48 hours) | IC50 [3] | IC50 ([2]; Homo sapiens, MOLM-14, 48 h)
COc1cc2ncc(-c3nc(N[C@H]4CNCC[C@@H]4F)c(F)cc3F)n2nc1C(C)(O)C(F)(F)F (single isomer, unassigned) [Compound 77a] | 166 nM | 254 nM | 8 nM | < 0.5 nM | 
COc1cc2ncc(-c3nc(N[C@H]4CNC[C@@H]4F)c(F)cc3F)n2nc1C(C)(O)C(F)(F)F (single isomer, unassigned) [Compound 80a] |  |  | 23 nM | < 0.5 nM | 
COc1cc2ncc(-c3nc(N[C@@H]4CCCNC4)c(F)cc3F)n2nc1C(C)(O)C(F)(F)F (single isomer, unassigned) [Compound 81a] |  |  | 6 nM | < 0.5 nM | 
COc1cc2ncc(-c3nc(N[C@H]4CNCC[C@@H]4F)c(F)cc3F)n2nc1C1CC2(CCC2)C1 [Compound 10a, 3,5-difluoro-N-((3S,4S)-4-fluoropiperidin-3-yl)-6-(7-methoxy-6-(spiro[3.3]heptan-2-yl)imidazo[1,2-b]pyridazin-3-yl)pyridin-2-amine] |  |  |  | < 0.5 nM | 
COc1cc2ncc(-c3nc(N[C@H]4CNC[C@@H]4F)c(F)cc3F)n2nc1C1CC2(CCC2)C1 [Compound 12a, 3,5-difluoro-N-((3S,4S)-4-fluoropyrrolidin-3-yl)-6-(7-methoxy-6-(spiro[3.3]heptan-2-yl)imidazo[1,2-b]pyridazin-3-yl)pyridin-2-amine] |  |  |  | < 0.5 nM | 
COc1cc2ncc(-c3nc(N[C@H]4CNCC[C@@H]4F)c(F)cc3F)n2nc1C1CCC1 [Compound 15a, 6-(6-cyclobutyl-7-methoxyimidazo[1,2-b]pyridazin-3-yl)-3,5-difluoro-N-((3S,4S)-4-fluoropiperidin-3-yl)pyridin-2-amine] | 108 nM | 136 nM |  | < 0.5 nM | 18 nM
COc1cc2ncc(-c3nc(N[C@H]4CNCC[C@@H]4F)c(F)cc3F)n2nc1C12CC(C1)C2 [Compound 67a, 6-(6-(bicyclo[1.1.1]pentan-1-yl)-7-methoxyimidazo[1,2-b]pyridazin-3-yl)-3,5-difluoro-N-((3S,4S)-4-fluoropiperidin-3-yl)pyridin-2-amine] | 284 nM | 331 nM |  | < 0.5 nM | 
